Data as given in patent publication US20240409585A1, “MACROCYCLIC IMMUNOMODULATORS” (priority 2021, published 2024).
Numbered stars: 1 amine (or outer) side, 2 acyl side, 3 side chain; on linkers, the order of the positions; unused ones are H or OH. Bridge positions count the residues as written; N and C are the ends. Square brackets hold non-standard residues; d marks the D form. Peptide text beside a SMILES is read from it. * marks the point of attachment. Bip(4'-COOH) = N[C@@H](Cc1ccc(-c2ccc(C(=O)O)cc2)cc1)C(=O)O; Bip(4'-NHAc) = CC(=O)Nc1ccc(-c2ccc(C[C@H](N)C(=O)O)cc2)cc1; Phe(3-CF3) = N[C@@H](Cc1cccc(C(F)(F)F)c1)C(=O)O; Ala(morpholin-4-yl) = N[C@@H](CN1CCOCC1)C(=O)O; Phe(4-COOH) = N[C@@H](Cc1ccc(C(=O)O)cc1)C(=O)O; Bip = N[C@@H](Cc1ccc(-c2ccccc2)cc1)C(=O)O; Phe(3-Me) = Cc1cccc(C[C@H](N)C(=O)O)c1; Val(3-OH) = CC(C)(O)[C@H](N)C(=O)O; Cha = N[C@@H](CC1CCCCC1)C(=O)O; Suc = O=C(CCC(=O)[*:2])[*:1]; Carboxymethyl = O=C(O)C*; NMeA = CN[C@@H](C)C(=O)O; Orn = NCCC[C@H](N)C(=O)O; Dab = NCC[C@H](N)C(=O)O; Dap = NC[C@H](N)C(=O)O

The compounds below were run against T1, Alexa fluor-647 labeled human PD-L1-Ig binding to Jurkat cell line over-expressing human PD-1 (Homo sapiens, UniProt Q15116) (assay: Jurkat-PD-1 Cell Binding High-Content Screening Assay (CBA): Method 3 (Alexa fluor-647 labeled PD-L1-Ig)). Conditions: Jurkat-PD-1 cells, Alexa fluor-647 labeled PD-L1-Ig 177 nM; head μM; read-out: CBA Method 3 μM.
T1 construct: expressed in transfected cells; host or cells: Jurkat
T1 sequence (Q15116 25-288): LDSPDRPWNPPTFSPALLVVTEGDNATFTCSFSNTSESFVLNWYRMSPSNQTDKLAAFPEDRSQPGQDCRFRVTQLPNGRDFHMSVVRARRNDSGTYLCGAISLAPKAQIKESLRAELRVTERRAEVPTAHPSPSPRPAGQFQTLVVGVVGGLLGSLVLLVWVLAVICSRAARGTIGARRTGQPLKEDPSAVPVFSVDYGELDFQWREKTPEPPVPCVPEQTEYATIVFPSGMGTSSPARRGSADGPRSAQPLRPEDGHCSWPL
Method in brief: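 Jurkat cells over-expressing human PD-1 in RPMI/10% FCS were preincubated 2 h at 37 °C with compound, then exposed 1 h to Alexa fluor-647 labeled human PD-L1-Ig (177 nM final). Cells fixed in 4% paraformaldehyde with Hoechst 33342 and binding quantified by high-content imaging.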

| SMILES | IC50 [µM] |
| --- | --- |
| Cc1cccc(C[C@@H]2NC(=O)[C@H](CC(=O)O)NC(=O)[C@H](Cc3ccc(-c4ccc(C(=O)O)cc4)cc3)NC(=O)[C@H]([C@@H](C)O)NC(=O)CSC[C@@H](C(=O)N[C@@H](CCN)C(N)=O)NC(=O)[C@H](Cc3cnc[nH]3)NC(=O)[C@H](C(C)(C)O)NC(=O)[C@H](CC3CCCCC3)NC(=O)[C@H](CCN)NC(=O)[C@@H](CC(C)C)NC(=O)[C@H](C)N(C)C(=O)[C@H](Cc3ccc(C(=O)O)cc3)NC(=O)[C@H](Cc3ccc(-c4ccccc4)cc3)NC(=O)[C@H](Cc3ccc(-c4ccc(C(=O)O)cc4)cc3)NC2=O)c1 [Example 5131] ({CH2CO}-T[Bip(4'-COOH)]D[Phe(3-Me)][Bip(4'-COOH)][Bip][Phe(4-COOH)][NMeA][dL][Dab][Cha][Val(3-OH)]HC[Dab]-NH2; thioether N-14) | 0.19 |
| CC(=O)Nc1ccc(-c2ccc(C[C@@H]3NC(=O)[C@H](Cc4cccc(C)c4)NC(=O)[C@H](CC(=O)O)NC(=O)[C@H](Cc4ccc(-c5ccc(C(=O)O)cc5)cc4)NC(=O)[C@H]([C@@H](C)O)NC(=O)CSC[C@@H](C(=O)N[C@@H](CCN)C(N)=O)NC(=O)[C@H](Cc4cnc[nH]4)NC(=O)[C@H](C(C)(C)O)NC(=O)[C@H](CC4CCCCC4)NC(=O)[C@H](CCN)NC(=O)[C@@H](CC(C)C)NC(=O)[C@H](C)N(C)C(=O)[C@H](Cc4ccc(OCC(=O)O)cc4)NC(=O)[C@H](Cc4ccc(-c5ccccc5)cc4)NC3=O)cc2)cc1 [Example 5132] ({CH2CO}-T[Bip(4'-COOH)]D[Phe(3-Me)][Bip(4'-NHAc)][Bip]Y(Carboxymethyl)[NMeA][dL][Dab][Cha][Val(3-OH)]HC[Dab]-NH2; thioether N-14) | 0.02 |
| Cc1cccc(C[C@@H]2NC(=O)[C@H](CC(=O)O)NC(=O)[C@H](Cc3ccc(-c4ccc(C(=O)O)cc4)cc3)NC(=O)[C@H](CN3CCOCC3)NC(=O)CSC[C@@H](C(=O)N[C@@H](CCN)C(N)=O)NC(=O)[C@H](Cc3cnc[nH]3)NC(=O)[C@H](C(C)(C)O)NC(=O)[C@H](CC3CCCCC3)NC(=O)[C@H](CCN)NC(=O)[C@@H](CC(C)C)NC(=O)[C@H](C)N(C)C(=O)[C@H](Cc3ccc(C(=O)O)cc3)NC(=O)[C@H](Cc3ccc(-c4ccccc4)cc3)NC(=O)[C@H](Cc3ccc(-c4ccc(C(=O)O)cc4)cc3)NC2=O)c1 [Example 5133] ({CH2CO}-[Ala(morpholin-4-yl)][Bip(4'-COOH)]D[Phe(3-Me)][Bip(4'-COOH)][Bip][Phe(4-COOH)][NMeA][dL][Dab][Cha][Val(3-OH)]HC[Dab]-NH2; thioether N-14) | 0.2 |
| CC(=O)Nc1ccc(-c2ccc(C[C@@H]3NC(=O)[C@H](Cc4cccc(C)c4)NC(=O)[C@H](CC(=O)O)NC(=O)[C@H](Cc4ccc(-c5ccc(C(=O)O)cc5)cc4)NC(=O)[C@H](CN4CCOCC4)NC(=O)CSC[C@@H](C(=O)N[C@@H](CCN)C(N)=O)NC(=O)[C@H](Cc4cnc[nH]4)NC(=O)[C@H](C(C)(C)O)NC(=O)[C@H](CC4CCCCC4)NC(=O)[C@H](CCN)NC(=O)[C@@H](CC(C)C)NC(=O)[C@H](C)N(C)C(=O)[C@H](Cc4ccc(OCC(=O)O)cc4)NC(=O)[C@H](Cc4ccc(-c5ccccc5)cc4)NC3=O)cc2)cc1 [Example 5134] ({CH2CO}-[Ala(morpholin-4-yl)][Bip(4'-COOH)]D[Phe(3-Me)][Bip(4'-NHAc)][Bip]Y(Carboxymethyl)[NMeA][dL][Dab][Cha][Val(3-OH)]HC[Dab]-NH2; thioether N-14) | 0.03 |
| CC(C)C[C@@H]1NC(=O)[C@H](Cc2c[nH]c3ccccc23)NC(=O)[C@H](CC(=O)O)NC(=O)[C@H](Cc2ccc(C(=O)O)cc2)NC(=O)[C@H](Cc2ccc(OCC(=O)O)cc2)NC(=O)CSC[C@@H](C(=O)N[C@@H](CCCN)C(N)=O)NC(=O)[C@H](C(C)C)NC(=O)[C@H]([C@@H](C)O)NC(=O)[C@H](CC2CCCCC2)NC(=O)[C@H](CCN)NC(=O)[C@@H](CC(C)C)NC(=O)[C@H](C)N(C)C(=O)[C@H](C(C)C)NC(=O)[C@H](Cc2ccc(-c3ccccc3)cc2)NC1=O [Example 5140] ({CH2CO}-Y(Carboxymethyl)[Phe(4-COOH)]DWL[Bip]V[NMeA][dL][Dab][Cha]TVC[Orn]-NH2; thioether N-14) | 0.01 |
| CC(C)C[C@@H]1NC(=O)[C@H](Cc2c[nH]c3ccccc23)NC(=O)[C@H](CC(=O)O)NC(=O)[C@H](Cc2ccc(C(=O)O)cc2)NC(=O)[C@H](Cc2ccc(OCC(=O)O)cc2)NC(=O)CSC[C@@H](C(=O)N[C@@H](CCN)C(N)=O)NC(=O)[C@H](C(C)C)NC(=O)[C@H]([C@@H](C)O)NC(=O)[C@H](CC2CCCCC2)NC(=O)[C@H](CCN)NC(=O)[C@@H](CC(C)C)NC(=O)[C@H](C)N(C)C(=O)[C@H](C(C)C)NC(=O)[C@H](Cc2ccc(-c3ccccc3)cc2)NC1=O [Example 5141] ({CH2CO}-Y(Carboxymethyl)[Phe(4-COOH)]DWL[Bip]V[NMeA][dL][Dab][Cha]TVC[Dab]-NH2; thioether N-14) | 0.02 |

Results, then the compound that gave them:

| IC50 [µM] | SMILES |
| --- | --- |
| 0.02 | Cc1cccc(C[C@@H]2NC(=O)[C@H](CC(=O)O)NC(=O)[C@H](Cc3ccc(C(=O)O)cc3)NC(=O)[C@H](C)NC(=O)CSC[C@@H](C(=O)N[C@@H](CCN)C(N)=O)NC(=O)[C@H](CCC(=O)O)NC(=O)[C@H](C(C)C)NC(=O)[C@H](CC3CCCCC3)NC(=O)[C@H](CCN)NC(=O)[C@@H](CC(C)C)NC(=O)[C@H](C)N(C)C(=O)[C@H](Cc3ccc(C(=O)O)cc3)NC(=O)[C@H](Cc3ccc(-c4ccccc4)cc3)NC(=O)[C@H](Cc3ccc(C(=O)O)cc3)NC2=O)c1 [Example 5136] ({CH2CO}-A[Phe(4-COOH)]D[Phe(3-Me)][Phe(4-COOH)][Bip][Phe(4-COOH)][NMeA][dL][Dab][Cha]VEC[Dab]-NH2; thioether N-14) |
| 0.03 | Cc1cccc(C[C@@H]2NC(=O)[C@H](CC(=O)O)NC(=O)[C@H](Cc3ccc(C(=O)O)cc3)NC(=O)[C@H](C)NC(=O)CSC[C@@H](C(=O)N[C@@H](CCN)C(N)=O)NC(=O)[C@H](CCC(=O)O)NC(=O)[C@H](C(C)C)NC(=O)[C@H](CC3CCCCC3)NC(=O)[C@H](CCN)NC(=O)[C@@H](CC(C)C)NC(=O)[C@H](C)N(C)C(=O)[C@H](Cc3ccc(OCC(=O)O)cc3)NC(=O)[C@H](Cc3ccc(-c4ccccc4)cc3)NC(=O)[C@H](Cc3ccc(C(=O)O)cc3)NC2=O)c1 [Example 5138] ({CH2CO}-A[Phe(4-COOH)]D[Phe(3-Me)][Phe(4-COOH)][Bip]Y(Carboxymethyl)[NMeA][dL][Dab][Cha]VEC[Dab]-NH2; thioether N-14) |
| 0.03 | Cc1cccc(C[C@@H]2NC(=O)[C@H](CC(=O)O)NC(=O)[C@H](Cc3ccc(OCC(=O)O)cc3)NC(=O)[C@H](C)NC(=O)CSC[C@@H](C(=O)N[C@@H](CCN)C(N)=O)NC(=O)[C@H](CCC(=O)O)NC(=O)[C@H](C(C)C)NC(=O)[C@H](CC3CCCCC3)NC(=O)[C@H](CCN)NC(=O)[C@@H](CC(C)C)NC(=O)[C@H](C)N(C)C(=O)[C@H](Cc3ccc(OCC(=O)O)cc3)NC(=O)[C@H](Cc3ccc(-c4ccccc4)cc3)NC(=O)[C@H](Cc3ccc(OCC(=O)O)cc3)NC2=O)c1 [Example 5139] ({CH2CO}-AY(Carboxymethyl)D[Phe(3-Me)]Y(Carboxymethyl)[Bip]Y(Carboxymethyl)[NMeA][dL][Dab][Cha]VEC[Dab]-NH2; thioether N-14) |

Same assay, conditions: Jurkat-PD-1 cells, Alexa fluor-647 labeled PD-L1-Ig 177 nM; nM; read-out: CBA Method 3

| IC50 [µM] | SMILES |
| --- | --- |
| 0.0068 | Cc1cccc(C[C@@H]2NC(=O)[C@H](CC(=O)O)NC(=O)[C@H](Cc3ccc(C(=O)O)cc3)NC(=O)[C@H](C)NC(=O)CSC[C@@H](C(=O)N[C@@H](CCN)C(N)=O)NC(=O)[C@H](CC(=O)O)NC(=O)[C@H](C(C)C)NC(=O)[C@H](CC3CCCCC3)NC(=O)[C@H](CCN)NC(=O)[C@@H](CC(C)C)NC(=O)[C@H](C)N(C)C(=O)[C@H](Cc3ccc(C(=O)O)cc3)NC(=O)[C@H](Cc3ccc(-c4ccccc4)cc3)NC(=O)[C@H](Cc3ccc(C(=O)O)cc3)NC2=O)c1 [Example 5135] ({CH2CO}-A[Phe(4-COOH)]D[Phe(3-Me)][Phe(4-COOH)][Bip][Phe(4-COOH)][NMeA][dL][Dab][Cha]VDC[Dab]-NH2; thioether N-14) |
| 0.0044 | Cc1cccc(C[C@@H]2NC(=O)[C@H](CC(=O)O)NC(=O)[C@H](Cc3ccc(OCC(=O)O)cc3)NC(=O)[C@H](C)NC(=O)CSC[C@@H](C(=O)N[C@@H](CCN)C(N)=O)NC(=O)[C@H](CCC(=O)O)NC(=O)[C@H](C(C)C)NC(=O)[C@H](CC3CCCCC3)NC(=O)[C@H](CCN)NC(=O)[C@@H](CC(C)C)NC(=O)[C@H](C)N(C)C(=O)[C@H](Cc3ccc(C(=O)O)cc3)NC(=O)[C@H](Cc3ccc(-c4ccccc4)cc3)NC(=O)[C@H](Cc3ccc(C(=O)O)cc3)NC2=O)c1 [Example 5137] ({CH2CO}-AY(Carboxymethyl)D[Phe(3-Me)][Phe(4-COOH)][Bip][Phe(4-COOH)][NMeA][dL][Dab][Cha]VEC[Dab]-NH2; thioether N-14) |
| 0.0033 | CC(C)C[C@H]1NC(=O)[C@H](C)N(C)C(=O)[C@H](Cc2ccc(C(=O)O)cc2)NC(=O)[C@H](Cc2ccc(-c3ccccc3)cc2)NC(=O)[C@H](Cc2ccc(C(=O)O)cc2)NC(=O)[C@H](Cc2cccc(C(F)(F)F)c2)NC(=O)[C@H](CC(=O)O)NC(=O)[C@H](Cc2ccc(C(=O)O)cc2)NC(=O)[C@H](CN2CCOCC2)NC(=O)CSC[C@@H](C(=O)N[C@@H](CCN)C(N)=O)NC(=O)[C@H](CNC(=O)CCC(=O)O)NC(=O)[C@H](C(C)C)NC(=O)[C@H](CC2CCCCC2)NC(=O)[C@H](CCN)NC1=O [Example 5142] ({CH2CO}-[Ala(morpholin-4-yl)][Phe(4-COOH)]D[Phe(3-CF3)][Phe(4-COOH)][Bip][Phe(4-COOH)][NMeA][dL][Dab][Cha]V[Dap](Suc)C[Dab]-NH2; thioether N-14) |
